The values that follow come from patent US5387592A, “Substituted benzoxazole, benzthiazole, and benzimidazole derivatives as angiotensin II antagonists” (Imperial Chemical Industries PLC, priority 1991, dated 1995).

The experiment addresses T1, AII receptors (Cavia porcellus, UniProt Q9WV26).
T1 construct: the source of cell surface membranes is the guinea pig adrenal gland; from tissue; host or cells: guinea pig adrenal gland, cell surface membrane fraction
T1 sequence (Q9WV26 1-359): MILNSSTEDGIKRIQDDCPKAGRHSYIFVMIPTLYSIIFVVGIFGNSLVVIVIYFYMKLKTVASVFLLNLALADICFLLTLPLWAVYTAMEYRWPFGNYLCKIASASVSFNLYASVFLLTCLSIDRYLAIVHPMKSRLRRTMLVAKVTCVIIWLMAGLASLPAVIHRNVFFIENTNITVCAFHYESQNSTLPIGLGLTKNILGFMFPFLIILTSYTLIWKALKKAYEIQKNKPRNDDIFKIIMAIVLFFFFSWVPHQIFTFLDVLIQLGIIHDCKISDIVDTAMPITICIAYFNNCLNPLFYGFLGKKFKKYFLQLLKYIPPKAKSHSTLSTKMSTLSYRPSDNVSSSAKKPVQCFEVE
The experiment is described as follows: Test A: displacement of radiolabelled AII binding from guinea pig adrenal gland membrane fraction. To be noted: guinea pig adrenal gland membranes; read-out: IC50 (concentration for 50% displacement of radiolabelled AII binding). As for the experimental part: This in vitro procedure involves the incubation of the test compound initially at a concentration of 100 micromolar (or less) in a buffered mixture containing fixed concentrations of radiolabelled AII and a cell surface membrane fraction prepared from a suitable angiotensin target tissue. In this test, the source of cell surface membranes is the guinea pig adrenal gland which is well known to respond to AII. Interaction of the radiolabelled AII with its receptors (assessed as radiolabel bound to the particulate membrane fraction following removal of unbound radiolabel by a rapid filtration procedure such as is standard in such studies) is antagonized by compounds which also bind to the membrane receptor sites and the degree of antagonism (observed in the test as displacement of membrane-bound radioactivity) is determined readily by comparing the receptor-bound radioactivity in the presence of the test compound at the specified test concentration with a control value determined in the absence of the test compound. Using this procedure compounds showing at least 50% displacement of radiolabelled AII binding at a concentration of 10^-4 M are retested at lower concentrations to determine their potency. […]

pIC50: −log10 of the molar value. Counter-ions that a name gives are not always drawn.

On to `CCc1cc(OCc2ccc3oc(-c4ccccc4-c4nnn[nH]4)nc3c2)c2c(n1)CCCC2` [Example 3, 2-ethyl-5,6,7,8-tetrahydro-4-[(2-(2-(1H-tetrazol-5-yl)phenyl)benzoxazol-5-yl)methoxy]quinoline hydrochloride], for which the pIC50 was 6.70.
